Test results: US8901118B2, “Compounds and methods for kinase modulation, and indications therefor” (Plexxikon Inc., priority 2010, dated 2014)

Legend:
TrkC kinase = TrkC kinase (Homo sapiens, UniProt Q16288); assay: TrkC kinase biochemical activity assay (similar to TrkA assay); settings: read-out: Biochemical Inhibition IC50 TrkC
Procedure: In one assay the biochemical activity IC50 values are determined with respect to inhibition of TrkA kinase activity, where inhibition of phosphorylation of a peptide substrate is measured as a function of compound concentration. Compounds to be tested, dissolved in DMSO (1 μL), are added to a white 384-well plate (Costar #3705). Working stocks of TrkA kinase (UBI), biotin-(E4Y)10 substrate (Upstate Biotech, Cat#12-440), and ATP (Sigma, Cat#A-3377) are prepared in 25 mM Hepes pH 7.5, 10 mM MnCl2, 1 mM DTT, 0.01% BSA, and 0.01% Tween-20. All components are added to the 384-well plate for a final concentration of 1 ng/well TrkA, 30 nM biotin-(E4Y)10 and 100 μM ATP in a volume of 20 μL. Each sample is at 5% DMSO. The plate is shaken for 1 minute at 1200 rpm, spun for 1 minute at 1000 rpm, then incubated for 40 minutes at room temperature. Just before use, working stocks of donor and acceptor beads from the AlphaScreen PY20 Detection Kit (PerkinElmer, Cat#676601M) are prepared in 25 mM Hepes pH 7.5, 100 mM EDTA. 0.01% BSA. Donor Beads solution (Streptavidin beads) is added (5 μL) to each well to final bead concentration of 10 μg/mL. The plate is incubated at room temperature for 20 minutes. Acceptor Beads solution (PY20 coated beads) are then added to each well (5 μL) to a final concentration of bead at 10 μg/mL. The plates are incubated at room temperature for 60 minutes. Fluorescence signal is recorded on the Envision reader. Phosphorylated substrate results in binding of the PY20 antibody and association of the donor and acceptor beads such that signal correlates with kinase activity. The signal vs. compound concentration is used to determine the IC50. Similar assays are used for TrkB and Trk C kinase.

BCR-FMS BaF3 cells = assay: Splenomegaly mouse model, BCR-FMS BaF3 cells; assay type: in vivo; settings: dosed once per day at 10 mg per kg
Procedure: (§1) BaF3 cells are engineered with any of BCR-FMS, BCR-TRK1 or BCR-TRK2 to assess in vivo inhibitory effects of Fms, TrkA or TrkB inhibition, respectively. BaF3 cells are maintained in growth media (RPMI containing 10% FBS, 1% PenStrep, 1% NEAA, and 1% L-Glutamine, supplemented with 5% murine IL-3 and 1 mg/mL G418). Four days prior to start, 2×10^6 cells are inoculated into a T150 vented flask using the growth media and incubated at 37° C. in 5% CO2 for three days. One day prior to start, cells are collected by centrifugation and are suspended in growth media without IL-3. On the day of cell implant, the cells are collected by centrifugation, rinsed 3×20 mL with RPMI, then are suspended in 5.4 mL of media and counted, then adjusted with additional RPMI as needed to give 5×10^7 cells/mL. On day 1, female nu/nu mice at 5-6 weeks of age are injected intravenously with BaF3 cells injected injecting 0.1 mL (5×10^6) cells in the tail vein (mice without cell injected are included as control group). Compound stocks in dimethylsulfoxide are stored at room temperature protected from light. Stocks are diluted prior to dosing, diluting 22 μL of compound stock into 858 μL of diluent (or 50 μL into 1950 μL) to provide vehicle of 1.0% Polysorbate 80, 0.5% hydroxypropyl methyl cellulose, with final dimethylsulfoxide at 2.5% in all dosing suspensions and vehicle control. Dosing suspension is prepared prior to use, mixing by inversion and sonication in a water bath to make a uniform suspension. On days 10-18, mice are treated with vehicle only or the desired level of compound in vehicle, ˜0.2 mL per 25 gm mouse, once a day by oral gavage, or in some instances, twice per day. On day 18, mice are administered a final dose and two hours later a plasma sample is taken. At four hours following the final dose, mice are sacrificed, an additional plasma sample is collected and mouse spleens are removed and weighed. The average spleen weight of vehicle control group mice is compared to the average spleen weight of the test compound mice. Percent spleen growth inhibition is calculated as 100×[(spleen weight vehicle control-spleen weight test compound)/spleen weight vehicle control]. In some instances, the compounds were not tested in all of the assays as indicated by NA in the table below.

BCR-TRK2 BaF3 cells = assay: Splenomegaly mouse model, BCR-TRK2 BaF3 cells; assay type: in vivo; settings: dosed once per day at 10 mg per kg
Procedure: as §1

Sequence of TrkC kinase (Q16288 32-839): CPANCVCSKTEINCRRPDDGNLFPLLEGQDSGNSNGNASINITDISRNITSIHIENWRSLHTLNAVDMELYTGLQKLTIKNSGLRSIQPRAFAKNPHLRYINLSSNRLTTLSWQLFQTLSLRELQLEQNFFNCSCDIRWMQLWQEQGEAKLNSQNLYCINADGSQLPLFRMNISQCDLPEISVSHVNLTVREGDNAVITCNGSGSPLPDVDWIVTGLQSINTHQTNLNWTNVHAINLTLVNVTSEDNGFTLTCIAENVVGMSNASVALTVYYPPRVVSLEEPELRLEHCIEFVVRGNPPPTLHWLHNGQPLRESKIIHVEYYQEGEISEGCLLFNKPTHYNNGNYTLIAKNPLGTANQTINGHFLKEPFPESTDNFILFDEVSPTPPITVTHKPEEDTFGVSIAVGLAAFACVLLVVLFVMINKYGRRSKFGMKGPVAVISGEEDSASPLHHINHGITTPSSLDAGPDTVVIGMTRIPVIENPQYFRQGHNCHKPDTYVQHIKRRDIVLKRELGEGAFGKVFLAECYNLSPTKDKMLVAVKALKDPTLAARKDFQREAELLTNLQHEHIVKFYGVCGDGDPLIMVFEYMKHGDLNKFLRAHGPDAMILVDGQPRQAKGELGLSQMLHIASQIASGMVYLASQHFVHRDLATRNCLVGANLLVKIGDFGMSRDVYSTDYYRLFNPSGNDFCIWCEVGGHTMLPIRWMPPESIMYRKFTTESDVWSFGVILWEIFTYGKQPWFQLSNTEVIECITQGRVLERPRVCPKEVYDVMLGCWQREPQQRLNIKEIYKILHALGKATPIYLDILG

IC50 (TrkC kinase) [µM]	Structure (SMILES)	% spleen growth inhibition, Fms (BCR-FMS BaF3 cells) [%]	% spleen growth inhibition, TrkB (BCR-TRK2 BaF3 cells) [%]
< 0.1	COc1ccc(Nc2ccc(Cc3c[nH]c4ncc(C)cc34)c(F)n2)cn1 [Compound P-3019, [6-fluoro-5-(5-methyl-1H-pyrrolo[2,3-b]pyridin-3-ylmethyl)-pyridin-2-yl]-(6-methoxy-pyridin-3-yl)-amine]	40	14
< 1	COc1ccc(Nc2ncc(Cc3c[nH]c4ncc(C)cc34)cn2)cn1 [Compound P-3020, (6-Methoxy-pyridin-3-yl)-[5-(5-methyl-1H-pyrrolo[2,3-b]pyridin-3-ylmethyl)-pyrimidin-2-yl]-amine]		
< 1	COc1ccc(Nc2ncc(Cc3c[nH]c4ncc(C)cc34)cn2)cc1 [Compound P-3021, (4-Methoxy-phenyl)-[5-(5-methyl-1H-pyrrolo[2,3-b]pyridin-3-ylmethyl)-pyrimidin-2-yl]-amine]		
< 1	COc1cc(Nc2ncc(Cc3c[nH]c4ncc(C)cc34)cn2)ccc1F [Compound P-3022, (4-Fluoro-3-methoxy-phenyl)-[5-(5-methyl-1H-pyrrolo[2,3-b]pyridin-3-ylmethyl)-pyrimidin-2-yl]-amine]		
> 1	CCCOc1ccc(Nc2ncc(Cc3c[nH]c4ncc(C)cc34)cn2)cc1 [Compound P-3024, [5-(5-Methyl-1H-pyrrolo[2,3-b]pyridin-3-ylmethyl)-pyrimidin-2-yl]-(4-propoxy-phenyl)-amine]		
< 0.01	CCc1ccc(Nc2ncc(Cc3c[nH]c4ncc(C)cc34)cn2)cc1 [Compound P-3025, (4-Ethyl-phenyl)-[5-(5-methyl-1H-pyrrolo[2,3-b]pyridin-3-ylmethyl)-pyrimidin-2-yl]-amine]		
< 0.1	CCOc1ccc(Nc2ncc(Cc3c[nH]c4ncc(C)cc34)cn2)cc1 [Compound P-3026, (4-Ethoxy-phenyl)-[5-(5-methyl-1H-pyrrolo[2,3-b]pyridin-3-ylmethyl)-pyrimidin-2-yl]-amine]		
< 0.1	CCOc1ccc(Nc2ncc(Cc3c[nH]c4ncc(C)cc34)cn2)cn1 [Compound P-3027, (6-Ethoxy-pyridin-3-yl)-[5-(5-methyl-1H-pyrrolo[2,3-b]pyridin-3-ylmethyl)-pyrimidin-2-yl]-amine]	42	2
< 0.1	Cc1cnc2[nH]cc(Cc3cnc(Nc4cc(-c5ccc(F)cc5)n[nH]4)nc3)c2c1 [Compound P-3028, [5-(4-Fluoro-phenyl)-2H-pyrazol-3-yl]-[5-(5-methyl-1H-pyrrolo[2,3-b]pyridin-3-ylmethyl)-pyrimidin-2-yl]-amine]		
< 1	Cc1cnc2[nH]cc(Cc3cnc(Nc4cc(C(C)(C)C)n[nH]4)nc3)c2c1 [Compound P-3029, (5-tert-Butyl-2H-pyrazol-3-yl)-[5-(5-methyl-1H-pyrrolo[2,3-b]pyridin-3-ylmethyl)-pyrimidin-2-yl]-amine]		
< 0.01	Cc1cnc2[nH]cc(Cc3cnc(Nc4ccc(C(C)(C)C)cc4)nc3)c2c1 [Compound P-3030, (4-tert-Butyl-phenyl)-[5-(5-methyl-1H-pyrrolo[2,3-b]pyridin-3-ylmethyl)-pyrimidin-2-yl]-amine amine]		
< 0.1	Cc1cnc2[nH]cc(Cc3cnc(Nc4ccc(C(O)(C(F)(F)F)C(F)(F)F)cc4)nc3)c2c1 [Compound P-3031, 1,1,1,3,3,3-Hexafluoro-2-{4-[5-(5-methyl-1H-pyrrolo[2,3-b]pyridin-3-ylmethyl)-pyrimidin-2-ylamino]-phenyl}-propan-2-ol]		
> 1	Cc1cnc2[nH]cc(Cc3cnc(Nc4cc(C5CC5)n[nH]4)nc3)c2c1 [Compound P-3032, (5-Cyclopropyl-2H-pyrazol-3-yl)-[5-(5-methyl-1H-pyrrolo[2,3-b]pyridin-3-ylmethyl)-pyrimidin-2-yl]-amine]		
< 0.1	CSc1ccc(Nc2ncc(Cc3c[nH]c4ncc(C)cc34)cn2)cc1 [Compound P-3033, [5-(5-Methyl-1H-pyrrolo[2,3-b]pyridin-3-ylmethyl)-pyrimidin-2-yl]-(4-methylsulfanyl-phenyl)-amine]		
< 1	Cc1cnc2[nH]cc(Cc3cnc(Nc4ccc(S(C)(=O)=O)cc4)nc3)c2c1 [Compound P-3034, (4-Methanesulfonyl-phenyl)-[5-(5-methyl-1H-pyrrolo[2,3-b]pyridin-3-ylmethyl)-pyrimidin-2-yl]-amine]		
< 1	CCn1ccc(Nc2ncc(Cc3c[nH]c4ncc(C)cc34)cn2)n1 [Compound P-3035, (1-Ethyl-1H-pyrazol-3-yl)-[5-(5-methyl-1H-pyrrolo[2,3-b]pyridin-3-ylmethyl)-pyrimidin-2-yl]-amine]		
< 1	CCn1cc(Nc2ncc(Cc3c[nH]c4ncc(C)cc34)cn2)cn1 [Compound P-3036, (1-Ethyl-1H-pyrazol-4-yl)-[5-(5-methyl-1H-pyrrolo[2,3-b]pyridin-3-ylmethyl)-pyrimidin-2-yl]-amine]		
< 0.01	COc1ccc(Nc2ccc(Cc3c[nH]c4ncnc(OC)c34)c(F)n2)cn1 [Compound P-4001, [6-Fluoro-5-(4-methoxy-7H-pyrrolo[2,3-d]pyrimidin-5-ylmethyl)-pyridin-2-yl]-(6-methoxy-pyridin-3-yl)-amine]		
< 1	COc1ccc(Nc2ccc(Cc3c[nH]c4ncnc(C)c34)c(F)n2)cn1 [Compound P-4002, [6-Fluoro-5-(4-methyl-7H-pyrrolo[2,3-d]pyrimidin-5-ylmethyl)-pyridin-2-yl]-(6-methoxy-pyridin-3-yl)-amine]		
	CCOc1ccc(Nc2ccc(Cc3c[nH]c4ncnc(C)c34)c(F)n2)cn1 [Compound P-4006, (6-Ethoxy-pyridin-3-yl)-[6-fluoro-5-(4-methyl-7H-pyrrolo[2,3-d]pyrimidin-5-ylmethyl)-pyridin-2-yl]-amine]	55	21
	CCc1ccc(Nc2ccc(Cc3c[nH]c4ncnc(OC)c34)c(F)n2)cn1 [Compound P-4007, (6-Ethyl-pyridin-3-yl)-[6-fluoro-5-(4-methoxy-7H-pyrrolo[2,3-d]pyrimidin-5-ylmethyl)-pyridin-2-yl]-amine]	28	19
	COc1ccc(Nc2ccc(C(=O)c3c[nH]c4ncnc(C5CC5)c34)c(F)n2)cn1 [Compound P-4022, (4-cyclopropyl-7H-pyrrolo[2,3-d]pyrimidin-5-yl)-[2-fluoro-6-(6-methoxy-pyridin-3-ylamino)-pyridin-3-yl]-methanone]	42	33
	CCc1ccc(Nc2ccc(Cc3c[nH]c4ncnc(C5CC5)c34)c(F)n2)cn1 [Compound P-4028, [5-(4-Cyclopropyl-7H-pyrrolo[2,3-d]pyrimidin-5-ylmethyl)-6-fluoro-pyridin-2-yl]-(6-ethyl-pyridin-3-yl)-amine]	86	88
	Cc1ccc(Nc2ccc(Cc3c[nH]c4ncnc(C5CC5)c34)c(F)n2)cn1 [Compound P-4030, [5-(4-Cyclopropyl-7H-pyrrolo[2,3-d]pyrimidin-5-ylmethyl)-6-fluoro-pyridin-2-yl]-(6-methyl-pyridin-3-yl)-amine]	58	50
